The target in data set [1] is human μ opiate receptor (Homo sapiens, UniProt P35372). Put plainly: μ opiate receptor binding assay with [3H]-naloxone (WGA-SPA beads). To be noted: mean.

Molecules are shown by their SMILES.

Chain of human μ opiate receptor (P35372 whole entry): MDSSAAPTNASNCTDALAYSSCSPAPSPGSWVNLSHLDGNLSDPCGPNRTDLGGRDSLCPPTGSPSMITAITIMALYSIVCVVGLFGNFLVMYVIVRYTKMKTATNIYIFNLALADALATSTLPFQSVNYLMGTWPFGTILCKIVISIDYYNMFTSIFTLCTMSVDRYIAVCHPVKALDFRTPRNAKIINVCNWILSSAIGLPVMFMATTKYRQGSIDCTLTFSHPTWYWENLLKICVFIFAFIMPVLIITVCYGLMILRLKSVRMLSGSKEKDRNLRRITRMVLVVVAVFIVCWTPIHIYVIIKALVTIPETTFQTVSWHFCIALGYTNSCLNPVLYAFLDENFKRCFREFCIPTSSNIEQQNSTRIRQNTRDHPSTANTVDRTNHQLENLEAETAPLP

`CN(C)C1(Cc2ccccc2)CCC2(CCNC2=O)CC1` (single isomer, unassigned) [Example 1, 8-Benzyl-8-(dimethyl-amino)-3-azaspiro[4.5]decan-4-one] displayed a Ki in data set [1] of 1.06 µM.

Turning to `CN1CCC2(CCC(Cc3ccccc3)(N(C)C)CC2)C1=O` (centres unmarked) [Example 118], the Ki in data set [1] came to 5.5 µM.

In data set [1], `CN(C)C1(C2CCCC2)CCC2(CCN(C(=O)C3COC3)C2)CC1` (centres unmarked) [Example 291] showed a Ki of 0.175 µM.

In data set [1], `CN(C)C1(Cc2ccccc2)CCC2(CCNC2)CC1` (single isomer, unassigned) [Example 4, (8-Benzyl-3-azaspiro[4.5]decan-8-yl)-dimethylamine] returned a Ki of 0.92 µM.

As to `CN1CC2(CCC(C3CCCC3)(N(C)C)CC2)CC1=O` (centres unmarked) [Example 282], in data set [1], the Ki is 0.295 µM.

Turning to `CN(C)C1(Cc2ccccc2)CCC2(CCNC2=O)CC1` (single isomer, unassigned) [Example 2, 8-Benzyl-8-(dimethyl-amino)-3-azaspiro[4.5]decan-4-one], the melting point was 202 to 204 °C. For the same compound, in data set [1], the Ki turned out to be 4.79 µM.

Turning to `CCCCN1CCC2(CCC(C(=O)c3ccccc3)(N(C)C)CC2)C1` (single isomer, unassigned) [Example 107, [3-Butyl-8-(dimethylamino)-3-azaspiro[4.5]decan-8-yl]-phenylmethanone], the affinity in data set [1] corresponds to a Ki of 0.95 µM.

For `CN(C)C1(Cc2ccccc2)CCC2(CCNC2)CC1` (single isomer, unassigned) [Example 3, (8-Benzyl-3-azaspiro[4.5]decan-8-yl)-dimethylamine], the Ki in data set [1] was determined as 1.83 µM.

Turning to `CN1CCC2(CCC(Cc3ccccc3)(N(C)C)CC2)C1=O` (centres unmarked) [Example 119], in data set [1], the affinity, expressed as Ki, was 3.57 µM.

On to `CN(C)C1(CC2CCCCC2)CCC2(CCNC2=O)CC1` (centres unmarked) [Example 92, 8-(Cyclohexylmethyl)-8-dimethylamino-3-azaspiro[4.5]decan-4-one], for which the Ki in data set [1] is 3590 µM.

With `CN1CCC2(CCC(Cc3ccccc3)(N(C)C)CC2)C1` (single isomer, unassigned) [Example 6, (8-Benzyl-3-methyl-3-azaspiro[4.5]decan-8-yl)-dimethylamine], the melting point is 57 to 58 °C. Moreover, the Ki in data set [1] came out at 1.1 µM.

`CN1CCC2(CCC(Cc3ccccc3)(N(C)C)CC2)C1` (single isomer, unassigned) [Example 5, (8-Benzyl-3-methyl-3-azaspiro[4.5]decan-8-yl)-dimethylamine]: the affinity in data set [1] corresponds to a Ki of 1.45 µM.

For the origin of these results see patent US10202345B2, “Substituted azaspiro(4.5)decane derivatives” (priority 2014, dated 2019).
